Laboratory results from patent US20030109525A1, “Crystalline thiazine oxazolidinones” (PHARMACIA & UPJOHN COMPANY, priority 2001, published 2003).

What was measured:
[1] = Bulk drug stability (storage at elevated temperature and humidity, HPLC assay); type: physicochemical
Method: As referred to in the present application, “stable” in bulk drug stability tests means that at least about 90% by weight, preferably at least about 95% by weight, and more preferably at least about 99% by weight of the bulk drug remains unchanged after storage under the indicated conditions for the indicated time.
Aliquots (about 0.3 mg) of bulk anhydrous crystalline N-({(5S)-3-[4-(1,1-dioxido-4-thiomorpholinyl)-3,5-difluorophenyl]-2-oxo-1,3-oxazolidin-5-yl}methyl)acetamide were weighed into 2-mL vials. The uncapped vials were placed either in a 75% relative humidity chamber (desiccator containing water saturated with sodium chloride) or in a dry chamber (desiccator containing Drierite). The chambers were placed in temperature controlled cabinets at 56° C. and 70° C. A single vial was removed from each desiccator at selected time points and was assayed using high pressure liquid chromatography (HPLC).

[2] = Hygroscopicity by dynamic moisture sorption gravimetry (DMSG); type: physicochemical; conditions: 25° C.
Method: X-ray diffraction (XRD) patterns were measured on a Scintag X2 diffractometer (Thermo ARL, Ecublens, Switzerland) equipped with a theta-theta goniometer. Single crystal x-ray diffraction was carried out on a Bruker SMART 6K CCD Area Detector diffractometer (Bruker AXS, Karlsruhe, Germany). Mass spectrometry (MS) (ionization type) was carried out on a Micromass Platform II spectrometer (Micromass, Manchester, United Kingdom). High pressure liquid chromatography (HPLC) was carried out on an Agilent 1100 Series chromatograph (Agilent Technologies, Palo Alto, Calif.). Melting points were determined using a TA Instruments 2920 differential scanning calorimeter (TA Instruments, New Castle, Del.) module with a Thermal Analyst 5000 controller. Hygroscopicity was assessed by dynamic moisture sorption gravimetry (DMSG) using a Controlled Atmosphere Microbalance (Pharmacia Corp., Kalamazoo, Mich.). All chemicals used are available from Aldrich Chemical Co., Milwaukee, Wis., unless otherwise specified. N-({(5S)-3-[3,5-difluoro-4-(4-thiomorpholinyl)phenyl]-2-oxo-1,3-oxazolidin-5-yl}methyl)acetamide was prepared as described in PCT International Publication Number WO 01/98297 (Barbachyn et al.).
DMSG isotherms were collected on the variable temperature controlled atmospheric microbalance. Approximately 10 mg samples were used in the balance. […] The mass was then measured every two minutes. […]

Bulk drug stability, % of initial HPLC peak area ([1]; 56° C., 75% relative humidity, Day 6): 100.1% | Bulk drug stability, % of initial HPLC peak area ([1]; 56° C., 75% relative humidity, Day 13): 99.3% | Bulk drug stability, % of initial HPLC peak area ([1]; 56° C., 75% relative humidity, Day 27): 99.9% | Bulk drug stability, % of initial HPLC peak area ([1]; 56° C., 75% relative humidity, Day 61): 100.1% | Bulk drug stability, % of initial HPLC peak area ([1]; 56° C., dessicator, Day 6): 100.1% | Bulk drug stability, % of initial HPLC peak area ([1]; 56° C., dessicator, Day 13): 99.4% | Bulk drug stability, % of initial HPLC peak area ([1]; 56° C., dessicator, Day 27): 100.0% | Bulk drug stability, % of initial HPLC peak area ([1]; 56° C., dessicator, Day 61): 99.8% | Bulk drug stability, % of initial HPLC peak area ([1]; 70° C., 75% relative humidity, Day 6): 100.1% | Bulk drug stability, % of initial HPLC peak area ([1]; 70° C., 75% relative humidity, Day 13): 99.6% | Bulk drug stability, % of initial HPLC peak area ([1]; 70° C., 75% relative humidity, Day 27): 99.9% | Bulk drug stability, % of initial HPLC peak area ([1]; 70° C., 75% relative humidity, Day 61): 99.9% | Bulk drug stability, % of initial HPLC peak area ([1]; 70° C., dessicator, Day 6): 100.1% | Bulk drug stability, % of initial HPLC peak area ([1]; 70° C., dessicator, Day 13): 99.7% | Bulk drug stability, % of initial HPLC peak area ([1]; 70° C., dessicator, Day 27): 100.0% | Bulk drug stability, % of initial HPLC peak area ([1]; 70° C., dessicator, Day 61): 100.0% | Bulk drug stability in aging tests (in words) ([1]; aging tests): excellent bulk drug stability | Hygroscopicity ([2]; dynamic moisture sorption scan 0 to 87% relative humidity): not hygroscopic | Moisture picked up during dynamic moisture sorption scan ([2]; scan from 0 to 87% relative humidity, 3% humidity steps, equilibrium time not more than 180 minutes per step): approximately 0.2%
Compound: CC(=O)NC[C@H]1CN(c2cc(F)c(N3CCS(=O)(=O)CC3)c(F)c2)C(=O)O1 [Anhydrous Crystalline Form, N-({(5S)-3-[4-(1,1-dioxido-4-thiomorpholinyl)-3,5-difluorophenyl]-2-oxo-1,3-oxazolidin-5-yl}methyl)acetamide]
